Results published in PMC12454493, “Insight on novel sulfamoylphenyl pyrazole derivatives as anticancer carbonic anhydrase inhibitors” (Molecular Diversity, 2024).

How the values were obtained:
LOX IMVI = experiment: NCI-60 one-dose SRB screen (Melanoma); assay type: cell-based; conditions: Homo sapiens, single dose 10 µM, 48 h, read-out: Growth inhibition percent (GI %)
SK-MEL-28 = experiment: NCI-60 one-dose SRB screen (Melanoma); assay type: cell-based; conditions: Homo sapiens, single dose 10 µM, 48 h, read-out: Growth inhibition percent (GI %)
UACC-62 = experiment: NCI-60 one-dose SRB screen (Melanoma); assay type: cell-based; conditions: Homo sapiens, single dose 10 µM, 48 h, read-out: Growth inhibition percent (GI %)
SK-MEL-2 = experiment: NCI-60 one-dose SRB screen (Melanoma); assay type: cell-based; conditions: Homo sapiens, single dose 10 µM, 48 h, read-out: Growth inhibition percent (GI %)
MDA-MB-435 = experiment: NCI-60 one-dose SRB screen (Melanoma); assay type: cell-based; conditions: Homo sapiens, single dose 10 µM, 48 h, read-out: Growth inhibition percent (GI %)
MALME-3M = experiment: NCI-60 one-dose SRB screen (Melanoma); assay type: cell-based; conditions: Homo sapiens, single dose 10 µM, 48 h, read-out: Growth inhibition percent (GI %)
SK-MEL-5 = experiment: NCI-60 one-dose SRB screen (Melanoma); assay type: cell-based; conditions: Homo sapiens, single dose 10 µM, 48 h, read-out: Growth inhibition percent (GI %)
UACC-257 = experiment: NCI-60 one-dose SRB screen (Melanoma); assay type: cell-based; conditions: Homo sapiens, single dose 10 µM, 48 h, read-out: Growth inhibition percent (GI %)
M14 = experiment: NCI-60 one-dose SRB screen (Melanoma); assay type: cell-based; conditions: Homo sapiens, single dose 10 µM, 48 h, read-out: Growth inhibition percent (GI %)
MDA-MB-231/ATCC = experiment: NCI-60 one-dose SRB screen (Breast Cancer); assay type: cell-based; conditions: Homo sapiens, single dose 10 µM, 48 h, read-out: Growth inhibition percent (GI %)
HS 578T = experiment: NCI-60 one-dose SRB screen (Breast Cancer); assay type: cell-based; conditions: Homo sapiens, single dose 10 µM, 48 h, read-out: Growth inhibition percent (GI %)
BT-549 = experiment: NCI-60 one-dose SRB screen (Breast Cancer); assay type: cell-based; conditions: Homo sapiens, single dose 10 µM, 48 h, read-out: Growth inhibition percent (GI %)
T-47D = experiment: NCI-60 one-dose SRB screen (Breast Cancer); assay type: cell-based; conditions: Homo sapiens, T47D, single dose 10 µM, 48 h, read-out: Growth inhibition percent (GI %)
MCF-7 = experiment: NCI-60 one-dose SRB screen (Breast Cancer); assay type: cell-based; conditions: Homo sapiens, MCF7, single dose 10 µM, 48 h, read-out: Growth inhibition percent (GI %)
MDA-MB-468 = experiment: NCI-60 one-dose SRB screen (Breast Cancer); assay type: cell-based; conditions: Homo sapiens, single dose 10 µM, 48 h, read-out: Growth inhibition percent (GI %)
OVCAR-4 = experiment: NCI-60 one-dose SRB screen (Ovarian cancer); assay type: cell-based; conditions: Homo sapiens, single dose 10 µM, 48 h, read-out: Growth inhibition percent (GI %)
OVCAR-8 = experiment: NCI-60 one-dose SRB screen (Ovarian cancer); assay type: cell-based; conditions: Homo sapiens, single dose 10 µM, 48 h, read-out: Growth inhibition percent (GI %)
NCI/ADR-RES = experiment: NCI-60 one-dose SRB screen (Ovarian cancer); assay type: cell-based; conditions: Homo sapiens, single dose 10 µM, 48 h, read-out: Growth inhibition percent (GI %)
OVCAR-3 = experiment: NCI-60 one-dose SRB screen (Ovarian cancer); assay type: cell-based; conditions: Homo sapiens, single dose 10 µM, 48 h, read-out: Growth inhibition percent (GI %)
OVCAR-5 = experiment: NCI-60 one-dose SRB screen (Ovarian cancer); assay type: cell-based; conditions: Homo sapiens, single dose 10 µM, 48 h, read-out: Growth inhibition percent (GI %)
IGROV1 = experiment: NCI-60 one-dose SRB screen (Ovarian cancer); assay type: cell-based; conditions: Homo sapiens, IGROV-1, single dose 10 µM, 48 h, read-out: Growth inhibition percent (GI %)
SK-OV-3 = experiment: NCI-60 one-dose SRB screen (Ovarian cancer); assay type: cell-based; conditions: Homo sapiens, single dose 10 µM, 48 h, read-out: Growth inhibition percent (GI %)
NCI-H23 = experiment: NCI-60 one-dose SRB screen (Non-Small Cell Lung Cancer); assay type: cell-based; conditions: Homo sapiens, single dose 10 µM, 48 h, read-out: Growth inhibition percent (GI %)
EKVX = experiment: as above; assay type: cell-based; conditions: Homo sapiens, single dose 10 µM, 48 h, read-out: Growth inhibition percent (GI %)
NCI-H522 = experiment: as above; assay type: cell-based; conditions: Homo sapiens, single dose 10 µM, 48 h, read-out: Growth inhibition percent (GI %)
HOP-62 = experiment: as above; assay type: cell-based; conditions: Homo sapiens, single dose 10 µM, 48 h, read-out: Growth inhibition percent (GI %)
NCI-H322M = experiment: as above; assay type: cell-based; conditions: Homo sapiens, single dose 10 µM, 48 h, read-out: Growth inhibition percent (GI %)
NCI-H226 = experiment: as above; assay type: cell-based; conditions: Homo sapiens, single dose 10 µM, 48 h, read-out: Growth inhibition percent (GI %)
NCI-H460 = experiment: as above; assay type: cell-based; conditions: Homo sapiens, single dose 10 µM, 48 h, read-out: Growth inhibition percent (GI %)
A549/ATCC = experiment: as above; assay type: cell-based; conditions: Homo sapiens, single dose 10 µM, 48 h, read-out: Growth inhibition percent (GI %)
HOP-92 = experiment: as above; assay type: cell-based; conditions: Homo sapiens, single dose 10 µM, 48 h, read-out: Growth inhibition percent (GI %)
SF-539 = experiment: NCI-60 one-dose SRB screen (CNS Cancer); assay type: cell-based; conditions: Homo sapiens, single dose 10 µM, 48 h, read-out: Growth inhibition percent (GI %)
SF-295 = experiment: NCI-60 one-dose SRB screen (CNS Cancer); assay type: cell-based; conditions: Homo sapiens, single dose 10 µM, 48 h, read-out: Growth inhibition percent (GI %)
SNB-19 = experiment: NCI-60 one-dose SRB screen (CNS Cancer); assay type: cell-based; conditions: Homo sapiens, single dose 10 µM, 48 h, read-out: Growth inhibition percent (GI %)
U251 = experiment: NCI-60 one-dose SRB screen (CNS Cancer); assay type: cell-based; conditions: Homo sapiens, U-251, single dose 10 µM, 48 h, read-out: Growth inhibition percent (GI %)
SF-268 = experiment: NCI-60 one-dose SRB screen (CNS Cancer); assay type: cell-based; conditions: Homo sapiens, single dose 10 µM, 48 h, read-out: Growth inhibition percent (GI %)
SNB-75 = experiment: NCI-60 one-dose SRB screen (CNS Cancer); assay type: cell-based; conditions: Homo sapiens, single dose 10 µM, 48 h, read-out: Growth inhibition percent (GI %)
RPMI-8226 = experiment: NCI-60 one-dose SRB screen (Leukemia); assay type: cell-based; conditions: Homo sapiens, single dose 10 µM, 48 h, read-out: Growth inhibition percent (GI %)
MOLT-4 = experiment: NCI-60 one-dose SRB screen (Leukemia); assay type: cell-based; conditions: Homo sapiens, single dose 10 µM, 48 h, read-out: Growth inhibition percent (GI %)
CCRF-CEM = experiment: NCI-60 one-dose SRB screen (Leukemia); assay type: cell-based; conditions: Homo sapiens, single dose 10 µM, 48 h, read-out: Growth inhibition percent (GI %)
HL-60(TB) = experiment: NCI-60 one-dose SRB screen (Leukemia); assay type: cell-based; conditions: Homo sapiens, single dose 10 µM, 48 h, read-out: Growth inhibition percent (GI %)
K-562 = experiment: NCI-60 one-dose SRB screen (Leukemia); assay type: cell-based; conditions: Homo sapiens, K562, single dose 10 µM, 48 h, read-out: Growth inhibition percent (GI %)
DU-145 = experiment: NCI-60 one-dose SRB screen (Prostate Cancer); assay type: cell-based; conditions: Homo sapiens, single dose 10 µM, 48 h, read-out: Growth inhibition percent (GI %)
PC-3 = experiment: NCI-60 one-dose SRB screen (Prostate Cancer); assay type: cell-based; conditions: Homo sapiens, single dose 10 µM, 48 h, read-out: Growth inhibition percent (GI %)

CS(=O)(=O)c1ccc(-c2nn(-c3ccc(S(N)(=O)=O)cc3)cc2C(=O)NNC(N)=S)cc1 [Compound 9e, 2-[3-(4-(Methylsulfonyl)phenyl)-1-(4-sulfamoylphenyl)-1H-pyrazole-4-carbonyl] hydrazine-1-carbothioamide]
inhibition at 10 µM (LOX IMVI): < 5%
inhibition at 10 µM (SK-MEL-28): < 5%
inhibition at 10 µM (UACC-62): 7.82%
inhibition at 10 µM (SK-MEL-2): < 5%
inhibition at 10 µM (MDA-MB-435): < 5%
inhibition at 10 µM (MALME-3M): < 5%
inhibition at 10 µM (SK-MEL-5): < 5%
inhibition at 10 µM (UACC-257): 7%
inhibition at 10 µM (M14): < 5%
inhibition at 10 µM (MDA-MB-231/ATCC): < 5%
inhibition at 10 µM (HS 578T): 7.37%
inhibition at 10 µM (BT-549): < 5%
inhibition at 10 µM (T-47D): < 5%
inhibition at 10 µM (MCF-7): < 5%
inhibition at 10 µM (MDA-MB-468): 7.21%
inhibition at 10 µM (OVCAR-4): < 5%
inhibition at 10 µM (OVCAR-8): < 5%
inhibition at 10 µM (NCI/ADR-RES): < 5%
inhibition at 10 µM (OVCAR-3): < 5%
inhibition at 10 µM (OVCAR-5): < 5%
inhibition at 10 µM (IGROV1): < 5%
inhibition at 10 µM (SK-OV-3): < 5%
inhibition at 10 µM (NCI-H23): < 5%
inhibition at 10 µM (EKVX): < 5%
inhibition at 10 µM (NCI-H522): 12.3%
inhibition at 10 µM (HOP-62): < 5%
inhibition at 10 µM (NCI-H322M): < 5%
inhibition at 10 µM (NCI-H226): 6.39%
inhibition at 10 µM (NCI-H460): < 5%
inhibition at 10 µM (A549/ATCC): < 5%
inhibition at 10 µM (HOP-92): < 5%
inhibition at 10 µM (SF-539): < 5%
inhibition at 10 µM (SF-295): < 5%
inhibition at 10 µM (SNB-19): < 5%
inhibition at 10 µM (U251): < 5%
inhibition at 10 µM (SF-268): < 5%
inhibition at 10 µM (SNB-75): 15.9%
melting point: 261 to 262 °C
inhibition at 10 µM (RPMI-8226): < 5%
inhibition at 10 µM (MOLT-4): < 5%
inhibition at 10 µM (CCRF-CEM): < 5%
inhibition at 10 µM (HL-60(TB)): < 5%
inhibition at 10 µM (K-562): < 5%
inhibition at 10 µM (DU-145): < 5%
inhibition at 10 µM (PC-3): < 5%

NC(=S)NNC(=O)c1cn(-c2ccc(S(N)(=O)=O)cc2)nc1-c1ccc(Br)cc1 [Compound 9d, 2-[3-(4-Bromophenyl)-1-(4-sulfamoylphenyl)-1H-pyrazole-4-carbonyl] hydrazine-1-carbothioamide]
inhibition at 10 µM (LOX IMVI): < 5%
inhibition at 10 µM (SK-MEL-28): < 5%
inhibition at 10 µM (UACC-62): < 5%
inhibition at 10 µM (SK-MEL-2): < 5%
inhibition at 10 µM (MDA-MB-435): < 5%
inhibition at 10 µM (MALME-3M): 10.9%
inhibition at 10 µM (SK-MEL-5): < 5%
inhibition at 10 µM (UACC-257): < 5%
inhibition at 10 µM (M14): < 5%
inhibition at 10 µM (MDA-MB-231/ATCC): < 5%
inhibition at 10 µM (HS 578T): 6.72%
inhibition at 10 µM (BT-549): < 5%
inhibition at 10 µM (T-47D): 7.04%
inhibition at 10 µM (MCF-7): < 5%
inhibition at 10 µM (MDA-MB-468): < 5%
inhibition at 10 µM (OVCAR-4): < 5%
inhibition at 10 µM (OVCAR-8): < 5%
inhibition at 10 µM (NCI/ADR-RES): < 5%
inhibition at 10 µM (OVCAR-3): < 5%
inhibition at 10 µM (OVCAR-5): < 5%
inhibition at 10 µM (IGROV1): 20.2%
inhibition at 10 µM (SK-OV-3): < 5%
inhibition at 10 µM (NCI-H23): < 5%
inhibition at 10 µM (EKVX): < 5%
inhibition at 10 µM (NCI-H522): 8.15%
inhibition at 10 µM (HOP-62): < 5%
inhibition at 10 µM (NCI-H322M): 14.9%
inhibition at 10 µM (NCI-H226): < 5%
inhibition at 10 µM (NCI-H460): < 5%
inhibition at 10 µM (A549/ATCC): < 5%
inhibition at 10 µM (HOP-92): < 5%
inhibition at 10 µM (SF-539): 6.59%
inhibition at 10 µM (SF-295): < 5%
inhibition at 10 µM (SNB-19): < 5%
inhibition at 10 µM (U251): < 5%
inhibition at 10 µM (SF-268): < 5%
inhibition at 10 µM (SNB-75): 12.1%
melting point: 238 to 241 °C
inhibition at 10 µM (RPMI-8226): < 5%
inhibition at 10 µM (MOLT-4): < 5%
inhibition at 10 µM (CCRF-CEM): < 5%
inhibition at 10 µM (HL-60(TB)): < 5%
inhibition at 10 µM (K-562): < 5%
inhibition at 10 µM (DU-145): < 5%
inhibition at 10 µM (PC-3): < 5%
